Test results taken from PubChem BioAssay (NCI).
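96-well plates; 48 h exposure; 5 concentrations. Endpoints by linear interpolation between flanking doses. Not reached: highest tested concentration assigned. TGI denotes the concentration required for complete inhibition of growth.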

Key:
Test in all cases: growth of human tumour cells (NCI), 48 h
HS 578T breast = tested on: HS 578T breast
SF-539 CNS = tested on: SF-539 CNS
OVCAR-4 ovarian = tested on: OVCAR-4 ovarian
BT-549 breast = tested on: BT-549 breast
NCI-H522 lung = tested on: NCI-H522 lung
UACC-257 melanoma = tested on: UACC-257 melanoma
SNB-19 CNS = tested on: SNB-19 CNS
HCC-2998 colon = tested on: HCC-2998 colon
TK-10 renal = tested on: TK-10 renal
SF-295 CNS = tested on: SF-295 CNS
UO-31 renal = tested on: UO-31 renal
PC-3 prostate = tested on: PC-3 prostate
HCT-116 colon = tested on: HCT-116 colon
M14 melanoma = tested on: M14 melanoma
T-47D breast = tested on: T-47D breast
CCRF-CEM leukemia = tested on: CCRF-CEM leukemia
SR leukemia = tested on: SR leukemia
NCI-H23 lung = tested on: NCI-H23 lung
SF-268 CNS = tested on: SF-268 CNS
IGROV1 ovarian = tested on: IGROV1 ovarian
OVCAR-3 ovarian = tested on: OVCAR-3 ovarian
NCI-H226 lung = tested on: NCI-H226 lung
OVCAR-5 ovarian = tested on: OVCAR-5 ovarian
SN12C renal = tested on: SN12C renal
SK-OV-3 ovarian = tested on: SK-OV-3 ovarian
NCI/ADR-RES ovarian = tested on: NCI/ADR-RES ovarian
LOX IMVI melanoma = tested on: LOX IMVI melanoma
MCF7 breast = tested on: MCF7 breast
EKVX NSCLC = tested on: EKVX NSCLC
HL-60(TB) leukemia = tested on: HL-60(TB) leukemia
SK-MEL-2 melanoma = tested on: SK-MEL-2 melanoma
DU-145 prostate = tested on: DU-145 prostate
ACHN renal = tested on: ACHN renal
MDA-N = tested on: MDA-N
UACC-62 melanoma = tested on: UACC-62 melanoma
KM12 colon = tested on: KM12 colon
RXF 393 renal = tested on: RXF 393 renal
HT29 colon = tested on: HT29 colon
A498 renal = tested on: A498 renal
MDA-MB-231 breast = tested on: MDA-MB-231 breast
MDA-MB-435 = tested on: MDA-MB-435
MALME-3M melanoma = tested on: MALME-3M melanoma
COLO 205 colon = tested on: COLO 205 colon
K-562 leukemia = tested on: K-562 leukemia
A549 NSCLC = tested on: A549 NSCLC
U251 CNS = tested on: U251 CNS
SW-620 colon = tested on: SW-620 colon
SK-MEL-28 melanoma = tested on: SK-MEL-28 melanoma
CAKI-1 renal = tested on: CAKI-1 renal
786-0 renal = tested on: 786-0 renal
HOP-92 NSCLC = tested on: HOP-92 NSCLC
NCI-H460 lung = tested on: NCI-H460 lung
OVCAR-8 ovarian = tested on: OVCAR-8 ovarian
SNB-75 CNS = tested on: SNB-75 CNS
HCT-15 colon = tested on: HCT-15 colon
SK-MEL-5 melanoma = tested on: SK-MEL-5 melanoma
HOP-62 NSCLC = tested on: HOP-62 NSCLC

COC(=O)C1=C(O)C(C(=O)OC)[C@@]2(O)[C@@H](C(=O)OC)C(c3ccc(OC(=O)/C=C/c4ccccc4)cc3)C[C@@H]1[C@@H]2C(=O)OC (some centres not stated)
TGI (HS 578T breast): > 100 µM | TGI (SF-539 CNS): 8.86 µM | TGI (OVCAR-4 ovarian): > 100 µM | TGI (BT-549 breast): 60.1 µM | TGI (NCI-H522 lung): > 100 µM | TGI (UACC-257 melanoma): 25.4 µM | TGI (SNB-19 CNS): > 100 µM | TGI (HCC-2998 colon): 27.3 µM | TGI (TK-10 renal): 33.6 µM | TGI (SF-295 CNS): > 100 µM | TGI (UO-31 renal): 25.5 µM | TGI (PC-3 prostate): > 100 µM | TGI (HCT-116 colon): 17.8 µM | TGI (M14 melanoma): 30.5 µM | TGI (T-47D breast): > 100 µM | TGI (CCRF-CEM leukemia): > 100 µM | TGI (SR leukemia): 22.5 µM | TGI (NCI-H23 lung): > 100 µM | TGI (SF-268 CNS): > 100 µM | TGI (IGROV1 ovarian): > 100 µM | TGI (OVCAR-3 ovarian): 94 µM | TGI (NCI-H226 lung): 60.1 µM | TGI (OVCAR-5 ovarian): 30.2 µM | TGI (SN12C renal): 27.3 µM | TGI (SK-OV-3 ovarian): > 100 µM | TGI (NCI/ADR-RES ovarian): > 100 µM | TGI (LOX IMVI melanoma): 5.75 µM | TGI (MCF7 breast): > 100 µM | TGI (EKVX NSCLC): 37.7 µM | TGI (HL-60(TB) leukemia): 32.6 µM | TGI (SK-MEL-2 melanoma): 21.9 µM | TGI (DU-145 prostate): > 100 µM | TGI (ACHN renal): > 100 µM | TGI (MDA-N): 13.1 µM | TGI (UACC-62 melanoma): 22.6 µM | TGI (KM12 colon): > 100 µM | TGI (RXF 393 renal): 19.1 µM | TGI (HT29 colon): 17 µM | TGI (A498 renal): > 100 µM | TGI (MDA-MB-231 breast): 63.6 µM | TGI (MDA-MB-435): > 100 µM | TGI (MALME-3M melanoma): > 100 µM | TGI (COLO 205 colon): 23.4 µM | TGI (K-562 leukemia): > 100 µM | TGI (A549 NSCLC): > 100 µM | TGI (U251 CNS): 28.5 µM | TGI (SW-620 colon): > 100 µM | TGI (SK-MEL-28 melanoma): > 100 µM | TGI (CAKI-1 renal): 73 µM | TGI (786-0 renal): 42.5 µM | TGI (HOP-92 NSCLC): > 100 µM | TGI (NCI-H460 lung): 7.8 µM | TGI (OVCAR-8 ovarian): > 100 µM | TGI (SNB-75 CNS): > 100 µM | TGI (HCT-15 colon): 46.7 µM | TGI (SK-MEL-5 melanoma): 28.8 µM | TGI (HOP-62 NSCLC): > 100 µM
